The series relates to IPSC-NSC. As to the kind of experiment: Neuronal differentiation of hybrid spheroids with DAPT loaded on nanosheets (qPCR, immunostaining). It counts as cell-based. On the procedure: Lastly, because Mn^2+ ions are MRI active, they could be used for MRI monitoring of degradation and drug release. A 7-day degradation study was performed, and it was shown that the Mn2+ ions generated correlated with the amount of the fluorescent model drug that was released, showing that the drug was released through the degradation of the scaffold nanosheets. After confirming the drug loading and degradation properties of the scaffold nanosheets and the hybrid spheroids, varying concentrations of DAPT were then loaded on the surface of the nanosheets at […] of from 0 to 50 μM. The spheres were cultured for 7 days and then the neuronal differentiation was analyzed using both qPCR and immunostaining.

[1] abbreviates: day 7, loaded concentration of 5 and 10 μM.

`C[C@H](NC(=O)Cc1cc(F)cc(F)c1)C(=O)N[C@H](C(=O)OC(C)(C)C)c1ccccc1` [DAPT, N-[N-(3,5-difluorophenacetyl)-L-alanyl]-S-phenylglycine t-butyl ester]: where the note is “50 μM condition”, the cell death result is given as “significant cell death” and the neurogenesis result was “impaired neurogenesis”. For the same molecule, under setting [1], the “Tuj1 positive cells by immunostaining” value was “significant increase in Tuj1 positive cells”; the axon length result is on record as “longer axons”; the “increase in mRNA expression of Tuj1” value is listed as “ca. 1.8 fold”; the “mature phenotype markers Map2 and NeuN (qPCR and immunostaining)” value is “increase in mature phenotype markers”.

The record behind these values is patent US20220049238A1, “Synthetic Matrix Assembled and Rapidly Templated Spheroids, Organoids and 3D Cell Cultures” (Rutgers, The State University of New Jersey, priority 2020, published 2022).
